Twelve compounds from patent US20250114374A1, “BCL-2 INHIBITORS” (Newave Pharmaceutical Inc., priority 2021, published 2025) can be followed below.

The experiment relates to RS4; 11 with G101V mutation. Kind of experiment: In vitro anti-proliferation assay (ATPlite luminescence) in BCL-2-dependent ALL cell line RS4;11 with G101V mutation. The following applies: read-out: RS411-G101V IC50. The experiment is classed as cell-based. The procedure:
Cell antiproliferation was assayed by PerkinElmer ATPlite™ Luminescence Assay System. Briefly, the various test cancer cell lines were plated at a density of about 1×10^4 cells per well in Costar 96-well plates, and were incubated with different concentrations of compounds for about 72 hours in medium supplemented with 10% FBS. One lyophilized substrate solution vial was then reconstituted by adding 5 mL of substrate buffer solution, and was agitated gently until the solution was homogeneous. About 50 μL of mammalian cell lysis solution was added to 100 μL of cell suspension per well of a microplate, and the plate was shaken for about five minutes in an orbital shaker at ˜700 rpm. This procedure was used to lyse the cells and to stabilize the ATP. Next, 50 μL substrate solution was added to the wells and microplate was shaken for five minutes in an orbital shaker at ˜700 rpm. Finally, the luminescence was measured by a PerkinElmer TopCount® Microplate Scintillation Counter. Such assays, carried out with a range of doses of test compounds, allowed the determination of the cellular anti-antiproliferative IC50 of the compounds of the present invention.
The following table lists the IC50 values of another study for certain compounds of the invention.

[1] abbreviates: cellular anti-proliferative IC50, about 72 hours, medium with 10% FBS, ATPlite.

Read-outs that look alike come from different tables or passages of the source.

Usually IC50 stands for the midpoint of a concentration-inhibition curve. On to `CC(C)Oc1ccccc1[C@@H]1CN([C@@H]2CCOc3c2ccc(F)c3F)CCN1C1CC2(CCN(c3ccc(C(=O)NS(=O)(=O)c4cc5c(c([N+](=O)[O-])c4)N[C@H](C4CCOCC4)CO5)c(N4c5cc6cc[nH]c6nc5O[C@H]5COCC[C@@H]54)c3)CC2)C1` [Example 212, 4-{2-[(2R)-4-[(4R)-7,8-difluoro-3,4-dihydro-2H-1-benzopyran-4-yl]-2-(2-isopropoxyphenyl)piperazin-1-yl]-7-azaspiro[3.5]nonan-7-yl}-2-[(3R,8S)-2,5-dioxa-9,15,17-triazatetracyclo[8.7.0.0^{3,8}.0^{12,16}]heptadeca-1(10),11,13,16-tetraen-9-yl]-N-[(3R)-5-nitro-3-(oxan-4-yl)-3,4-dihydro-2H-1,4-benzoxazin-7-ylsulfonyl]benzamide], for which the IC50 under setting [1] was found to be 0.0335 µM. With `COc1ccc(CN2CCN(C3CC4(CCN(c5ccc(C(=O)NS(=O)(=O)c6ccc(NCC7CCC(C)(O)CC7)c([N+](=O)[O-])c6)c(N6c7cc8cc[nH]c8nc7O[C@H]7COCC[C@@H]76)c5)CC4)C3)[C@@H](c3ccccc3OC(C)C)C2)cn1` (stereo partly drawn) [Example 102, 2-[(3R,8S)-2,5-dioxa-9,15,17-triazatetracyclo[8.7.0.0^{3,8}.0^{12,16}]heptadeca-1(10),11,13,16-tetraen-9-yl]-4-{2-[(2S)-2-(2-isopropoxyphenyl)-4-[(6-methoxypyridin-3-yl)methyl]piperazin-1-yl]-7-azaspiro[3.5]nonan-7-yl}-N-[3-nitro-4-({[(1r,4r)-4-hydroxy-4-methylcyclohexyl]methyl}amino)benzenesulfonyl]benzamide], the IC50 under setting [1] was 0.018 µM. On the same count and under the same terms, to `CC(C)c1ccccc1[C@@H]1CN(Cc2ccc(F)c(F)c2)CCN1C1CC2(CCN(c3ccc(C(=O)NS(=O)(=O)c4ccc(NCC5CCOCC5)c([N+](=O)[O-])c4)c(N4c5cc6cc[nH]c6nc5O[C@H]5COCC[C@@H]54)c3)CC2)C1` [Example 165, 4-{2-[(2R)-4-[(3,4-difluorophenyl)methyl]-2-(2-isopropylphenyl)piperazin-1-yl]-7-azaspiro[3.5]nonan-7-yl}-2-[(3R,8S)-2,5-dioxa-9,15,17-triazatetracyclo[8.7.0.0^{3,8}.0^{12,16}]heptadeca-1(10),11,13,16-tetraen-9-yl]-N-{3-nitro-4-[(oxan-4-ylmethyl)amino]benzenesulfonyl}benzamide] belongs 0.0109 µM; to `COc1cc(CN2CCN(C3CC4(CCN(c5ccc(C(=O)NS(=O)(=O)c6ccc(NC[C@H]7CC[C@](C)(O)CC7)c([N+](=O)[O-])c6)c(N6c7cc8cc[nH]c8nc7O[C@H]7COCC[C@@H]76)c5)CC4)C3)[C@@H](c3ccccc3OC(C)C)C2)ccc1C1CC1` [Example 157, 4-(2-((S)-4-(4-cyclopropyl-3-methoxybenzyl)-2-(2-isopropoxyphenyl)piperazin-1-yl)-7-azaspiro[3.5]nonan-7-yl)-N-((4-((((1r,4r)-4-hydroxy-4-methylcyclohexyl)methyl)amino)-3-nitrophenyl)sulfonyl)-2-((5aS,9aR)-6,7,9,9a-tetrahydro-1H-pyrano[3,4-b]pyrrolo[3′,2′:5,6]pyrido[3,2-e][1,4]oxazin-5(5aH)-yl)benzamide], 0.0318 µM; to `CC(C)Oc1ccccc1[C@@H]1CN(Cc2ccc(F)c(F)c2)CCN1C1CC2(CCN(c3ccc(C(=O)NS(=O)(=O)c4cc5c(c([N+](=O)[O-])c4)N[C@H](C4CCOCC4)CO5)c(N4c5cc6c(F)c[nH]c6nc5O[C@H]5COCC[C@@H]54)c3)CC2)C1` [Example 236, 4-{2-[(2R)-4-[(3,4-difluorophenyl)methyl]-2-(2-isopropoxyphenyl)piperazin-1-yl]-7-azaspiro[3.5]nonan-7-yl}-2-[(3R,8S)-13-fluoro-2,5-dioxa-9,15,17-triazatetracyclo[8.7.0.0^{3,8}.0^{12,16}]heptadeca-1(10),11,13,16-tetraen-9-yl]-N-[(3R)-5-nitro-3-(oxan-4-yl)-3,4-dihydro-2H-1,4-benzoxazin-7-ylsulfonyl]benzamide], 0.00552 µM. The same measure, in the same setting: to `Cc1ccccc1[C@@H]1CN(C2CCC3(CCOCC3)CC2)CCN1C1CC2(CCN(c3ccc(C(=O)NS(=O)(=O)c4cc5c(c([N+](=O)[O-])c4)N[C@H](C4CCOCC4)CO5)c(N4c5cc6cc[nH]c6nc5O[C@H]5COCC[C@@H]54)c3)CC2)C1` (stereo partly drawn) [Example 202, 2-[(3R,8S)-2,5-dioxa-9,15,17-triazatetracyclo[8.7.0.0^{3,8}.0^{12,16}]heptadeca-1(10),11,13,16-tetraen-9-yl]-4-{2-[(2R)-2-(2-methylphenyl)-4-{3-oxaspiro[5.5]undecan-9-yl}piperazin-1-yl]-7-azaspiro[3.5]nonan-7-yl}-N-[(3R)-5-nitro-3-(oxan-4-yl)-3,4-dihydro-2H-1,4-benzoxazin-7-ylsulfonyl]benzamide] belongs 0.0151 µM; to `CC(C)Oc1ccccc1[C@H]1CN(C2CCC(N3CCOC[C@H]3C)CC2)CCN1C1CC2(CCN(c3ccc(C(=O)NS(=O)(=O)c4ccc(NCC5CCC(C)(O)CC5)c([N+](=O)[O-])c4)c(N4c5cc6cc[nH]c6nc5O[C@H]5COCC[C@@H]54)c3)CC2)C1` (stereo partly drawn) [Example 160, N-((4-((((1r,4r)-4-hydroxy-4-methylcyclohexyl)methyl)amino)-3-nitrophenyl)sulfonyl)-4-(2-((S)-2-(2-isopropoxyphenyl)-4-((1S,4R)-4-((R)-3-methylmorpholino)cyclohexyl)piperazin-1-yl)-7-azaspiro[3.5]nonan-7-yl)-2-((5aS,9aR)-6,7,9,9a-tetrahydro-1H-pyrano[3,4-b]pyrrolo[3′,2′:5,6]pyrido[3,2-e][1,4]oxazin-5(5aH)-yl)benzamide], 0.0228 µM. Turning to `CC(C)Oc1ccccc1[C@@H]1CN([C@@H]2COc3c(F)cc(F)cc3C2)CCN1C1CC2(CCN(c3ccc(C(=O)NS(=O)(=O)c4cc5c(c([N+](=O)[O-])c4)N[C@H](C4CCOCC4)CO5)c(N4c5cc6cc[nH]c6nc5O[C@H]5COCC[C@@H]54)c3)CC2)C1` [Example 220, 4-(2-((R)-4-((S)-6,8-difluorochroman-3-yl)-2-(2-isopropoxyphenyl)piperazin-1-yl)-7-azaspiro[3.5]nonan-7-yl)-N-(((R)-5-nitro-3-(tetrahydro-2H-pyran-4-yl)-3,4-dihydro-2H-benzo[b][1,4]oxazin-7-yl)sulfonyl)-2-((5aS,9aR)-6,7,9,9a-tetrahydro-1H-pyrano[3,4-b]pyrrolo[3′,2′:5,6]pyrido[3,2-e][1,4]oxazin-5(5aH)-yl)benzamide], the IC50 (Homo sapiens, RS4-11, 72 h) was 0.261 µM. Turning to `Cc1ccccc1[C@@H]1CN(Cc2cnc(N3CCOCC3)c3c2C(C)(C)CCO3)CCN1C1CC2(CCN(c3ccc(C(=O)NS(=O)(=O)c4cc5c(c([N+](=O)[O-])c4)N[C@H](C4CCOCC4)CO5)c(N4c5cc6cc[nH]c6nc5O[C@H]5COCC[C@@H]54)c3)CC2)C1` [Example 192, 4-{2-[(2R)-4-{[4,4-dimethyl-8-(morpholin-4-yl)-2H,3H-pyrano[2,3-c]pyridin-5-yl]methyl}-2-(2-methylphenyl)piperazin-1-yl]-7-azaspiro[3.5]nonan-7-yl}-2-[(3R,8S)-2,5-dioxa-9,15,17-triazatetracyclo[8.7.0.0^{3,8}.0^{12,16}]heptadeca-1(10),11,13,16-tetraen-9-yl]-N-[(3R)-5-nitro-3-(oxan-4-yl)-3,4-dihydro-2H-1,4-benzoxazin-7-ylsulfonyl]benzamide], the IC50 under setting [1] stood at 0.00241 µM.

Consider `Cc1ccccc1[C@@H]1CN(Cc2cnc(N3CCOC[C@@H]3C)c(F)c2)CCN1C1CC2(CCN(c3ccc(C(=O)NS(=O)(=O)c4cc5c(c([N+](=O)[O-])c4)N[C@H](C4CCOCC4)CO5)c(N4c5cc6cc[nH]c6nc5O[C@H]5COCC[C@@H]54)c3)CC2)C1` [Example 189, 2-[(3R,8S)-2,5-dioxa-9,15,17-triazatetracyclo[8.7.0.0^{3,8}.0^{12,16}]heptadeca-1(10),11,13,16-tetraen-9-yl]-4-{2-[(2R)-4-({5-fluoro-6-[(3S)-3-methylmorpholin-4-yl]pyridin-3-yl}methyl)-2-(2-methylphenyl)piperazin-1-yl]-7-azaspiro[3.5]nonan-7-yl}-N-[(3R)-5-nitro-3-(oxan-4-yl)-3,4-dihydro-2H-1,4-benzoxazin-7-ylsulfonyl]benzamide], for which the IC50 under setting [1] came out at 0.0368 µM.

For `COc1cc(CN2CCN(C3CC4(CCN(c5ccc(C(=O)NS(=O)(=O)c6ccc(NCC7CCC(C)(O)CC7)c([N+](=O)[O-])c6)c(N6c7cc8cc[nH]c8nc7O[C@H]7COCC[C@@H]76)c5)CC4)C3)[C@H](c3ccccc3C)C2)cnc1OC` (stereo partly drawn) [Example 118, 4-{2-[(2R)-4-[(5,6-dimethoxypyridin-3-yl)methyl]-2-(2-methylphenyl)piperazin-1-yl]-7-azaspiro[3.5]nonan-7-yl}-2-[(3R,8S)-2,5-dioxa-9,15,17-triazatetracyclo[8.7.0.0^{3,8}.0^{12,16}]heptadeca-1(10),11,13,16-tetraen-9-yl]-N-[3-nitro-4-({[(1r,4r)-4-hydroxy-4-methylcyclohexyl]methyl}amino)benzenesulfonyl]benzamide], under setting [1], the IC50 is 0.0044 µM.

Regarding `CC(C)Oc1ccccc1[C@@H]1CN(C2CCOCC2)CCN1C1CC2(CCN(c3ccc(C(=O)NS(=O)(=O)c4cc5c(c([N+](=O)[O-])c4)N[C@H](C4CCOCC4)CO5)c(N4c5cc6cc[nH]c6nc5O[C@H]5COCC[C@@H]54)c3)CC2)C1` [Example 182, 4-(2-((R)-2-(2-isopropoxyphenyl)-4-(tetrahydro-2H-pyran-4-yl)piperazin-1-yl)-7-azaspiro[3.5]nonan-7-yl)-N-(((R)-5-nitro-3-(tetrahydro-2H-pyran-4-yl)-3,4-dihydro-2H-benzo[b][1,4]oxazin-7-yl)sulfonyl)-2-((5aS,9aR)-6,7,9,9a-tetrahydro-1H-pyrano[3,4-b]pyrrolo[3′,2′:5,6]pyrido[3,2-e][1,4]oxazin-5(5aH)-yl)benzamide], the IC50 (Homo sapiens, RS4-11, 72 h) was 0.0581 µM.
